{
  "source": "patent US9526720B2",
  "about": "“Modulators of hepatic lipoprotein metabolism” (The Broad Institute, Inc., priority 2012, dated 2016)",
  "key": {"ApoB": {"tested_on": "ApoB", "assay": "ELISA of secreted ApoB in HepG2 cells", "type": "cell-based, human", "procedure,_shortened": "(§1)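 HepG2 cells treated with freshly purified compound powders; culture medium assayed by ELISA for secreted ApoB and PCSK9, and cell protein assayed by ELISA for LDLR.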"}, "LDLR [1]": {"tested_on": "LDLR", "assay": "ELISA of LDLR protein in HepG2 cells", "type": "cell-based, human", "procedure,_shortened": "as §1"}, "PCSK9 [2]": {"tested_on": "PCSK9", "assay": "ELISA of secreted PCSK9 protein in HepG2 cells", "type": "cell-based, human", "procedure,_shortened": "as §1"}, "HepG2 cells [3]": {"tested_on": "HepG2 cells", "assay": "Cell Titer Glo (CTG) cell viability assay", "type": "cell-based, human", "parameters": "key: A: Increase <2-fold; B: Increase >2-fold; X: Decrease <2-fold; Y: Decrease >2-fold; No significant change", "conditions": "cell viability (ATP)", "procedure,_shortened": "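HepG2 viability was measured after TRIB1 inducer treatment by CellTiter-Glo, a luminescent readout of ATP content proportional to metabolically active cells.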"}, "TRIB1": {"tested_on": "TRIB1", "assay": "qPCR TRIB1 expression in HepG2 cells", "type": "cell-based, human"}, "SCAP": {"tested_on": "SCAP", "assay": "qPCR SCAP transcript level in HepG2 cells", "type": "cell-based, human", "procedure,_shortened": "(§2)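 HepG2 cells were treated 20 h with TRIB1 inducer compounds, with a 10 microM duplicate primary screen. Transcripts were quantified by qPCR after RNA isolation and reverse transcription, normalized to GAPDH and expressed relative to DMSO control. Atorvastatin treatment was profiled alongside.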"}, "SREBF1": {"tested_on": "SREBF1", "assay": "qPCR SREBF1 transcript level in HepG2 cells", "type": "cell-based, human", "procedure,_shortened": "as §2"}, "SREBF2": {"tested_on": "SREBF2", "assay": "qPCR SREBF2 transcript level in HepG2 cells", "type": "cell-based, human", "procedure,_shortened": "as §2"}, "PCSK9 [4]": {"tested_on": "PCSK9", "assay": "qPCR PCSK9 expression in HepG2 cells", "type": "cell-based, human"}, "LDLR [5]": {"tested_on": "LDLR", "assay": "qPCR LDLR expression in HepG2 cells", "type": "cell-based, human"}, "HMGCR": {"tested_on": "HMGCR", "assay": "qPCR HMGCR transcript level in HepG2 cells", "type": "cell-based, human", "procedure,_shortened": "as §2"}, "HMGCS": {"tested_on": "HMGCS", "assay": "qPCR HMGCS transcript level in HepG2 cells", "type": "cell-based", "conditions": "Homo sapiens, 20 h", "procedure,_shortened": "as §2"}, "FASN": {"tested_on": "FASN", "assay": "qPCR FASN transcript level in HepG2 cells", "type": "cell-based", "conditions": "Homo sapiens, 20 h", "procedure,_shortened": "as §2"}, "SCD1": {"tested_on": "SCD1", "assay": "qPCR SCD1 transcript level in HepG2 cells", "type": "cell-based", "conditions": "Homo sapiens, 20 h", "procedure,_shortened": "as §2"}, "APOC3": {"tested_on": "APOC3", "assay": "Transcriptional profiling of APOC3 gene in HepG2 cells", "type": "cell-based, human", "conditions": "10 μM, 24 hours", "description": "Expression of APOC3 is associated with increased levels of triglycerides in plasma and carriers of APOC3 gene null mutation have low levels of triglycerides and are protected from cardiovascular disease (Pollin et al., Science, 322:1702, 2008)."}, "MTTP": {"tested_on": "MTTP", "assay": "qPCR MTTP expression in HepG2 cells", "type": "cell-based, human", "conditions": "28 hour time course", "description": "Further analysis of the expression levels of various proteins in the cholesterol and triglyceride biosynthetic pathways in response to TRIB1 inducer treatment was performed. In particular, transcript levels of additional lipoprotein metabolism pathway proteins SCAP, SREBF1, SREBF2, HMGCR, HMGCS, SCD1, FASN and MTTP were assessed by qPCR, along with TRIB1, LDLR, and PCSK9. The gene expression profile for the same subset of genes was also assessed after treatment with the statin atorvastatin (Lipitor), commonly used in therapy for hypercholesterolemia and other cardiovascular diseases.\nThe kinetics of the modulation of TRIB1, LDLR, PCSK9 and MTTP gene expression after treatment by select TRIB1 inducer compounds was monitored by qPCR analysis (FIG. 4). RNA was extracted from cells at various timepoints over 28 hours of treatment (0, 2, 4, 6, 8, 24, 28 hours). Specifically, compounds 12a and 14a induced transcriptional responses over time similar to those produced by berberine, a plant alkaloid used in Chinese medicine. […] Both compound 12a and compound 14a induce TRIB1 and LDLR and repress PCSK9 and MTTP expression with similar kinetics and similar fold change as berberine Importantly, both compounds induce these gene expression changes at much lower concentrations than berberine. […]"}, "HepG2 cells [6]": {"tested_on": "HepG2 cells", "assay": "BODIPY-FL LDL uptake in HepG2 cells (high content microscopy)", "type": "cell-based, human", "conditions": "treated 20 hours; BODIPY-FL LDL uptake monitored 5 hours", "description": "TRIB1 inducers increase the rate of LDL uptake. HepG2 cells grown under standard culture conditions (10% FBS) were treated for 20 hours with compounds 2a, 14a and 12a at indicated concentrations and the uptake of BODIPY-FL conjugated LDL particles was monitored for 5 hours using high content microscopy. To control for regulation of LDL uptake by cholesterol, cells were grown in media depleted for (0.5% LPDS—lipoprotein deficient serum) or supplemented with cholesterol (0.5% LPDS plus cholesterol ([…] cholesterol and […] 25-OH cholesterol))."}, "LDLR [7]": {"tested_on": "LDLR", "assay": "qPCR LDLR expression in HepG2 cells", "type": "cell-based, human", "conditions": "overnight simvastatin, then compound"}, "[8]": {"conditions": "at the maximal dose tested, HepG2"}, "[9]": {"conditions": "Homo sapiens, 20 h, HepG2 cells"}},
  "note": "Entries after “also recorded” stand apart in the source; their conditions may differ.",
  "data": [
    {"smiles": "CN(C)c1ccc2c(c1)[C@@H]1C[C@@H](CC(=O)NCc3ccc(Oc4ccccc4)cc3)O[C@@H](CO)[C@@H]1O2", "note": "[Compound 12a]", "values": [
      {"measurement": "secretion of apoB into the media / ApoB levels (in words)", "setting": "ApoB; HepG2", "result": "inhibited secretion of apoB"},
      {"measurement": "ELISA ApoB", "setting": "ApoB; HepG2 cells", "result": "Y (Decrease >2-fold)"},
      {"measurement": "increase of the LDL receptor protein in the cell", "setting": "LDLR [1]; HepG2", "result": 3, "unit": "fold"},
      {"measurement": "ELISA LDLR", "setting": "LDLR [1]; HepG2 cells", "result": "B (Increase >2-fold)"},
      {"measurement": "ELISA PCSK9", "setting": "PCSK9 [2]; HepG2 cells", "result": "Y (Decrease >2-fold)"},
      {"measurement": "inhibition of secretion of PCSK9 protein into the media", "setting": "PCSK9 [2]; [8]", "result": 70, "unit": "%"},
      {"measurement": "CTG", "setting": "HepG2 cells [3]", "result": "N"},
      {"measurement": "TRIB1 expression (in words)", "setting": "TRIB1; HepG2, qPCR", "result": "induce; also recorded: robustly induced"},
      {"measurement": "fold induction at 10 µM", "setting": "TRIB1; [9]", "result": "< 2"},
      {"measurement": "potency relative to berberine", "setting": "TRIB1; TRIB1, LDLR, PCSK9 and MTTP gene expression changes, HepG2", "result": 5, "unit": "fold"},
      {"measurement": "qPCR SCAP", "setting": "SCAP", "result": "X (Decrease <2-fold)"},
      {"measurement": "qPCR SREBF1", "setting": "SREBF1", "result": "Y (Decrease >2-fold)"},
      {"measurement": "qPCR SREBF2", "setting": "SREBF2", "result": "Y (Decrease >2-fold)"},
      {"measurement": "PCSK9 expression (in words)", "setting": "PCSK9 [4]; HepG2, qPCR", "result": "repress; also recorded: strongly reduced"},
      {"measurement": "fold induction at 10 µM", "setting": "PCSK9 [4]; [9]", "result": "> 2"},
      {"measurement": "inhibition of expression of PCSK9 mRNA", "setting": "PCSK9 [4]; [8]", "result": 70, "unit": "%"},
      {"measurement": "expression of PCSK9 stimulated by pretreatment with atorvastatin (in words)", "setting": "PCSK9 [4]; atorvastatin pretreatment", "result": "potently reduced"},
      {"measurement": "LDLR expression (in words)", "setting": "LDLR [5]; HepG2, qPCR", "result": "induction of LDLR expression; also recorded: induce; also recorded: robustly induced"},
      {"measurement": "qPCR LDLR", "setting": "LDLR [5]; HepG2 cells", "result": "A (Increase <2-fold)"},
      {"measurement": "qPCR HMGCR", "setting": "HMGCR", "result": "Y (Decrease >2-fold)"},
      {"measurement": "fold induction at 10 µM", "setting": "HMGCS", "result": "> 2"},
      {"measurement": "fold induction at 10 µM", "setting": "FASN", "result": "> 2"},
      {"measurement": "fold induction at 10 µM", "setting": "SCD1", "result": "> 2"},
      {"measurement": "expression of APOC3 gene (in words)", "setting": "APOC3", "result": "down regulates"},
      {"measurement": "MTTP expression (in words)", "setting": "MTTP", "result": "repress"},
      {"measurement": "rate of LDL uptake (in words)", "setting": "HepG2 cells [6]", "result": "robust increase"},
      {"measurement": "induction of LDLR expression in combination with simvastatin (in words)", "setting": "LDLR [7]", "result": "additive effect"}
    ]}
  ]
}
